Test results from US9884842B2, “Combretastatin analogs” (The Board of Trustees of the University of Arkansas, priority 2013, dated 2018).
Where two headings read alike, the source gives them in different places.

Key:
MALME-3M = assay: NCI growth inhibition and cytotoxicity screen, Melanoma panel; conditions: Homo sapiens; for CC50: read-out: LC50
SF-539 = assay: NCI growth inhibition and cytotoxicity screen, CNS Cancer panel; conditions: Homo sapiens; for GI50: SF-539; for CC50: SF-539, read-out: LC50
OVCAR-3 = assay: cells; conditions: Homo sapiens; for GI50: OVCAR-3; for CC50: OVCAR-3, read-out: LC50
IGROV1 = assay: NCI growth inhibition and cytotoxicity screen, Ovarian Cancer panel; conditions: Homo sapiens; for GI50: IGROV-1; for CC50: IGROV-1, read-out: LC50
MDA-MB-231/ATCC = assay: NCI growth inhibition and cytotoxicity screen, Breast Cancer panel; conditions: Homo sapiens; for GI50: MDA-MB-231; for CC50: MDA-MB-231, read-out: LC50
NCI-H322M = assay: NCI growth inhibition and cytotoxicity screen, Lung Cancer panel; conditions: Homo sapiens; for CC50: read-out: LC50
SK-MEL-28 = assay: NCI growth inhibition and cytotoxicity screen, Melanoma panel; conditions: Homo sapiens; for GI50: SK-MEL-28; for CC50: SK-MEL-28, read-out: LC50
CCRF-CEM = assay: NCI growth inhibition and cytotoxicity screen, Leukemia panel; conditions: Homo sapiens; for CC50: read-out: LC50
HT29 = assay: NCI growth inhibition and cytotoxicity screen, Colon Cancer panel; conditions: Homo sapiens; for GI50: HT-29; for CC50: HT-29, read-out: LC50
SF-295 = assay: NCI growth inhibition and cytotoxicity screen, CNS Cancer panel; assay type: cell-based; conditions: Homo sapiens; for CC50: read-out: LC50 (the source's name)
T-47D = assay: NCI growth inhibition and cytotoxicity screen, Breast Cancer panel; conditions: Homo sapiens, T47D; for CC50: read-out: LC50
K-562 = assay: NCI growth inhibition and cytotoxicity screen, Leukemia panel; conditions: Homo sapiens; for GI50: K562; for CC50: K562, read-out: LC50
COLO 205 = assay: NCI growth inhibition and cytotoxicity screen, Colon Cancer panel; conditions: Homo sapiens; for GI50: COLO 205; for CC50: COLO 205, read-out: LC50
NCI-H226 = assay: NCI growth inhibition and cytotoxicity screen, Lung Cancer panel; conditions: Homo sapiens; for GI50: NCI-H226; for CC50: NCI-H226, read-out: LC50
BT-549 = assay: NCI growth inhibition and cytotoxicity screen, Breast Cancer panel; conditions: Homo sapiens; for GI50: BT-549; for CC50: BT-549, read-out: LC50
MOLT-4 = assay: NCI growth inhibition and cytotoxicity screen, Leukemia panel; conditions: Homo sapiens; for GI50: MOLT-4; for CC50: MOLT-4, read-out: LC50
786-0 = assay: NCI growth inhibition and cytotoxicity screen, Renal Cancer panel; conditions: Homo sapiens; for GI50: 786-0; for CC50: 786-0, read-out: LC50
NCI-H23 = assay: NCI growth inhibition and cytotoxicity screen, Lung Cancer panel; conditions: Homo sapiens; for GI50: NCI-H23; for CC50: NCI-H23, read-out: LC50
LOX-IMVI = assay: NCI growth inhibition and cytotoxicity screen, Melanoma panel; conditions: Homo sapiens; for CC50: read-out: LC50
MCF7 = assay: NCI growth inhibition and cytotoxicity screen, Breast Cancer panel; conditions: Homo sapiens; for GI50: MCF7; for CC50: MCF7, read-out: LC50
MDA-MB-435 = assay: NCI growth inhibition and cytotoxicity screen, Melanoma panel; conditions: Homo sapiens; for GI50: MDA-MB-435; for CC50: MDA-MB-435, read-out: LC50
TK-10 = assay: NCI growth inhibition and cytotoxicity screen, Renal Cancer panel; conditions: Homo sapiens; for GI50: TK-10; for CC50: TK-10, read-out: LC50
CAKI-1 = assay: as above; conditions: Homo sapiens; for GI50: CAKI-1; for CC50: CAKI-1, read-out: LC50
ACHN = assay: as above; conditions: Homo sapiens; for CC50: read-out: LC50
OVCAR-5 = assay: NCI growth inhibition and cytotoxicity screen, Ovarian Cancer panel; conditions: Homo sapiens; for GI50: OVCAR-5; for CC50: OVCAR-5, read-out: LC50
RPMI-8226 = assay: NCI growth inhibition and cytotoxicity screen, Leukemia panel; conditions: Homo sapiens; for GI50: RPMI-8226; for CC50: RPMI-8226, read-out: LC50
KM12 = assay: NCI growth inhibition and cytotoxicity screen, Colon Cancer panel; conditions: Homo sapiens; for GI50: KM12; for CC50: KM12, read-out: LC50
NCI/ADR-RES = assay: NCI growth inhibition and cytotoxicity screen, Ovarian Cancer panel; conditions: Homo sapiens; for CC50: read-out: LC50
SK-MEL-2 = assay: NCI growth inhibition and cytotoxicity screen, Melanoma panel; conditions: Homo sapiens; for GI50: SK-MEL-2; for CC50: SK-MEL-2, read-out: LC50
UO-31 = assay: NCI growth inhibition and cytotoxicity screen, Renal Cancer panel; conditions: Homo sapiens; for GI50: UO-31; for CC50: UO-31, read-out: LC50
A498 = assay: as above; conditions: Homo sapiens; for GI50: A498; for CC50: A498, read-out: LC50
HL-60(TB) = assay: cells; conditions: Homo sapiens; for GI50: HL-60; for CC50: HL-60, read-out: LC50
[1] = SF-295, Table 1, cell line SF-2395 (CNS Cancer)
[2] = Table 2, cell line SF-295 (CNS Cancer)

## COc1cc(/C=C/c2nc3ccccc3s2)cc(OC)c1OC [Formula (I)(d)]
MALME-3M
  GI50: 0.07 nM
  CC50: 51.6 µM
SF-539
  GI50: 0.076 nM
  CC50: 56.2 µM
OVCAR-3
  GI50: 0.069 nM
  CC50: > 100 µM
IGROV1
  GI50: 0.24 nM
  CC50: 94.2 µM
MDA-MB-231/ATCC
  GI50: 0.71 nM
  CC50: > 100 µM
NCI-H322M
  CC50: > 100 µM
SK-MEL-28
  GI50: 0.31 nM
  CC50: 50.5 µM
CCRF-CEM
  GI50: 0.13 nM
  CC50: > 100 µM
HT29
  GI50: 0.038 nM
  CC50: > 100 µM
SF-295; [1]
  GI50: 0.07 nM
  CC50: > 100 µM
T-47D
  GI50: 0.96 nM
  CC50: > 100 µM
K-562
  GI50: 0.041 nM
  CC50: > 100 µM
COLO 205
  GI50: 0.049 nM
  CC50: 24.6 µM
NCI-H226
  GI50: 0.00024 µM
  CC50: 88.5 µM
BT-549
  GI50: 3.7 nM
  CC50: 58.8 µM
MOLT-4
  GI50: 1.28 nM
  CC50: > 100 µM
786-0
  GI50: 1.32 nM
  CC50: > 100 µM
NCI-H23
  GI50: 0.72 nM
  CC50: > 100 µM
LOX-IMVI
  GI50: 1.9 nM
  CC50: 67.9 µM
MCF7
  GI50: 0.31 nM
  CC50: 51.5 µM
MDA-MB-435
  GI50: 0.024 nM
  CC50: 44.6 µM
TK-10
  GI50: 11.1 nM
  CC50: > 100 µM
CAKI-1
  GI50: 0.14 nM
  CC50: > 100 µM
ACHN
  GI50: 1.22 nM
  CC50: > 100 µM
OVCAR-5
  GI50: 0.93 nM
  CC50: > 100 µM
RPMI-8226
  GI50: 0.15 nM
  CC50: > 100 µM
KM12
  GI50: 0.072 nM
  CC50: 41.6 µM
NCI/ADR-RES
  GI50: 0.1 nM
  CC50: > 100 µM
SK-MEL-2
  GI50: 0.064 nM
  CC50: 64.2 µM
UO-31
  GI50: 0.37 nM
  CC50: > 100 µM
A498
  GI50: 0.041 nM
  CC50: 35.8 µM
HL-60(TB)
  GI50: 0.037 nM
  CC50: > 100 µM

## COc1cc(OC)cc(/C(C#N)=C/c2ccc3ccccc3n2)c1 [PNR-4-84, (Z)-2-(3,5-dimethoxyphenyl)-3-(quinolin-2-yl)acrylonitrile]
MALME-3M
  GI50: 348 nM
  CC50: > 100 µM
SF-539
  GI50: 286 nM
  CC50: 8.03 µM
OVCAR-3
  GI50: 309 nM
  CC50: 34 µM
IGROV1
  GI50: 958 nM
  CC50: > 100 µM
MDA-MB-231/ATCC
  GI50: 1020 nM
  CC50: > 100 µM
NCI-H322M
  GI50: 3.02 µM
  CC50: > 100 µM
SK-MEL-28
  GI50: 896 nM
  CC50: > 100 µM
CCRF-CEM
  GI50: 332 nM
  CC50: > 100 µM
HT29
  GI50: 367 nM
  CC50: > 100 µM
SF-295; [2]
  GI50: 341 nM
  CC50: > 100 µM
T-47D
  GI50: 1230 nM
  CC50: > 100 µM
K-562
  GI50: 353 nM
  CC50: > 100 µM
COLO 205
  GI50: 374 nM
  CC50: > 100 µM
NCI-H226
  GI50: 10.8 µM
  CC50: > 100 µM
BT-549
  GI50: 342 nM
  CC50: 80.6 µM
MOLT-4
  GI50: 419 nM
  CC50: > 100 µM
786-0
  GI50: 501 nM
  CC50: > 100 µM
NCI-H23
  GI50: 983 nM
  CC50: > 100 µM
LOX-IMVI
  GI50: 610 nM
  CC50: > 100 µM
MCF7
  GI50: 537 nM
  CC50: > 100 µM
MDA-MB-435
  GI50: 147 nM
  CC50: > 100 µM
TK-10
  GI50: 3280 nM
  CC50: > 100 µM
CAKI-1
  GI50: 318 nM
  CC50: > 100 µM
ACHN
  GI50: 773 nM
  CC50: > 100 µM
OVCAR-5
  GI50: 716 nM
  CC50: 42.8 µM
RPMI-8226
  GI50: 433 nM
  CC50: > 100 µM
KM12
  GI50: 425 nM
  CC50: > 100 µM
NCI/ADR-RES
  GI50: 283 nM
  CC50: > 100 µM
SK-MEL-2
  GI50: 522 nM
  CC50: > 100 µM
UO-31
  GI50: 573 nM
  CC50: > 100 µM
A498
  GI50: 275 nM
  CC50: > 100 µM
HL-60(TB)
  GI50: 270 nM
  CC50: > 100 µM
